Each molecule was assayed on WT Mtb Erdman strain (assay: Microplate Alamar Blue Assay (MABA), Mtb growth inhibition). Conditions: Mycobacterium tuberculosis, ERDMAN, 168 h, Middlebrook 7H9 media, 7 days at 37° C. in 5% CO2.
Assay type: cell-based, Mycobacterium tuberculosis

Row | Compound | IC50 [nM]
1 | CCc1nc(N[C@@H]2C[C@H]2c2ccccc2)c2cc(C)sc2n1 (racemic) [Example 1, 2-ethyl-6-methyl-N-((rac-1S,2R)-2-phenylcyclopropyl) thieno[2,3-d]pyrimidin-4-amine] | 240
2 | CCc1nc(NC[C@@H]2C[C@H]2c2ccccc2)c2cc(C)sc2n1 (racemic) [Example 84, 2-ethyl-6-methyl-N-(((1S,2S)-2-phenylcyclopropyl)methyl)thieno[2,3-d]pyrimidin-4-amine] | 7700
3 | CCc1nc(N[C@@H]2C[C@H]2c2ccccc2)c2ccsc2n1 (racemic) [Example 175, 2-ethyl-N-((rac-1R,2S)-2-phenylcyclopropyl) thieno[2,3-d]pyrimidin-4-amine] | < 240
4 | CCc1nc(N[C@H]2C[C@@H]2c2ccccc2)c2cc(C)sc2n1 [Example 2, 2-ethyl-6-methyl-N-((1S,2R)-2-phenylcyclopropyl) thieno[2,3-d]pyrimidin-4-amine] | 3100
5 | CCc1nc(NCCCc2ccc(C(F)(F)F)cc2)c2cc(C)sc2n1 [Example 3, 2-ethyl-6-methyl-N-(3-(4-(trifluoromethyl)phenyl)propyl)thieno [2,3-d]pyrimidin-4-amine] | 280
6 | CCc1nc(N[C@@H]2C[C@H]2c2ccc(F)c(F)c2)c2cc(C)sc2n1 [Example 4, N-((1R,2S)-2-(3,4-difluorophenyl)cyclopropyl)-2-ethyl-6-methylthieno[2,3-d]pyrimidin-4-amine] | 300
7 | CCc1nc(NC2CC(c3ccccc3)C2)c2cc(C)sc2n1 (stereo not drawn) [Example 5, 2-ethyl-6-methyl-N-(3-phenylcyclobutyl) thieno[2,3-d]pyrimidin-4-amine] | 2100
8 | CCc1nc(N[C@@H]2C[C@H]2c2ccccc2)c2cc(C)sc2n1 [Example 6, 2-ethyl-6-methyl-N-((1R,2S)-2-phenylcyclopropyl) thieno[2,3-d]pyrimidin-4-amine] | 440
9 | CCc1nc(NCCc2ccc(Cl)cc2)c2cc(C)sc2n1 [Example 7, N-(4-chlorophenethyl)-2-ethyl-6-methylthieno[2,3-d]pyrimidin-4-amine] | 1100
10 | CCc1nc(NCCc2cccc(Cl)c2)c2cc(C)sc2n1 [Example 8, N-(3-chlorophenethyl)-2-ethyl-6-methylthieno[2,3-d]pyrimidin-4-amine] | 690
11 | CCc1nc(NCCc2ccccc2Cl)c2cc(C)sc2n1 [Example 9, N-(2-chlorophenethyl)-2-ethyl-6-methylthieno[2,3-d]pyrimidin-4-amine] | 2000
12 | CCc1nc(NCCc2ccc3ccccc3c2)c2cc(C)sc2n1 [Example 10, 2-ethyl-6-methyl-N-(2-(naphthalen-2-yl)ethyl)thieno[2,3-d]pyrimidin-4-amine] | 450
13 | CCc1nc(NCCOc2ccccc2)c2cc(C)sc2n1 [Example 11, 2-ethyl-6-methyl-N-(2-phenoxyethyl)thieno [2,3-d]pyrimidin-4-amine] | 2800
14 | CCc1nc(NCCc2ccncc2)c2cc(C)sc2n1 [Example 12, 2-ethyl-6-methyl-N-(2-(pyridin-4-yl)ethyl)thieno[2,3-d]pyrimidin-4-amine] | > 10000
15 | CCc1nc(NCCc2cccnc2)c2cc(C)sc2n1 [Example 13, 2-ethyl-6-methyl-N-(2-(pyridin-3-yl)ethyl)thieno[2,3-d]pyrimidin-4-amine] | > 10000
16 | CCc1nc(NCCc2ccccn2)c2cc(C)sc2n1 [Example 14, 2-ethyl-6-methyl-N-(2-(pyridin-2-yl)ethyl)thieno[2,3-d]pyrimidin-4-amine] | > 10000
17 | CCc1nc(NCCc2ccc(OC)cc2)c2cc(C)sc2n1 [Example 15, 2-ethyl-N-(4-methoxyphenethyl)-6-methylthieno[2,3-d]pyrimidin-4-amine] | 2100

Row | Compound | IC50 [nM]
18 | CCc1nc(NCCc2ccc([N+](=O)[O-])cc2)c2cc(C)sc2n1 [Example 16, 2-ethyl-6-methyl-N-(4-nitrophenethyl)thieno [2,3-d]pyrimidin-4-amine] | 9000
19 | CCc1nc(N(C)CCCc2ccccc2)c2cc(C)sc2n1 [Example 17, 2-ethyl-N,6-dimethyl-N-(3-phenylpropyl)thieno [2,3-d]pyrimidin-4-amine] | 7600
20 | CCc1nc(NCCCc2ccc(OC)cc2)c2cc(C)sc2n1 [Example 18, 2-ethyl-N-(3-(4-methoxyphenyl)propyl)-6-methylthieno[2,3-d]pyrimidin-4-amine] | 60
21 | CCc1nc(NCCc2ccc(C(F)(F)F)cc2)c2cc(C)sc2n1 [Example 19, 2-ethyl-6-methyl-N-(4-(trifluoromethyl)phenethyl)thieno[2,3-d]pyrimidin-4-amine] | 2900
22 | CCc1nc(NCCc2cccc(C(F)(F)F)c2)c2cc(C)sc2n1 [Example 20, 2-ethyl-6-methyl-N-(3-(trifluoromethyl)phenethyl)thieno[2,3-d]pyrimidin-4-amine] | 4900
23 | CCc1nc(NCCc2ccccc2C(F)(F)F)c2cc(C)sc2n1 [Example 21, 2-ethyl-6-methyl-N-(2-(trifluoromethyl)phenethyl)thieno[2,3-d]pyrimidin-4-amine] | > 10000
24 | CCc1nc(NCCCc2ccc(OC)c(OC)c2)c2cc(C)sc2n1 [Example 22, N-(3-(3,4-dimethoxyphenyl)propyl)-2-ethyl-6-methylthieno[2,3-d]pyrimidin-4-amine] | 770
25 | CCc1nc(NC(C)CCc2ccccc2)c2cc(C)sc2n1 (stereo not drawn) [Example 23, 2-ethyl-6-methyl-N-(4-phenylbutan-2-yl)thieno[2,3-d]pyrimidin-4-amine] | 8300
26 | CCc1nc(NCCCc2ccco2)c2cc(C)sc2n1 [Example 24, 2-ethyl-N-(3-(furan-2-yl)propyl)-6-methylthieno[2,3-d]pyrimidin-4-amine] | 1000
27 | CCc1nc(NCCCCc2ccccc2)c2cc(C)sc2n1 [Example 25, 2-ethyl-6-methyl-N-(4-phenylbutyl)thieno [2,3-d]pyrimidin-4-amine] | 120
28 | CCc1nc(NCCc2ccc(-c3ccccc3)cc2)c2cc(C)sc2n1 [Example 26, N-(2-([1,1′-biphenyl]-4-yl)ethyl)-2-ethyl-6-methylthieno[2,3-d]pyrimidin-4-amine] | 1200
29 | CCc1nc(NCCCn2cccc2)c2cc(C)sc2n1 [Example 27, N-(3-(1H-pyrrol-1-yl)propyl)-2-ethyl-6-methylthieno[2,3-d]pyrimidin-4-amine] | 210
30 | Cc1cc2c(N[C@@H]3C[C@H]3c3ccc(F)c(F)c3)nc(C(F)(F)F)nc2s1 [Example 28, N-((1R,2S)-2-(3,4-difluorophenyl)cyclopropyl)-6-methyl-2-(trifluoromethyl) thieno [2,3-d]pyrimidin-4-amine] | 2100
31 | COc1ccc(CCCNc2nc(-c3ccccn3)nc3sccc23)cc1 [Example 29, N-(3-(4-methoxyphenyl)propyl)-2-(pyridin-2-yl)thieno[2,3-d]pyrimidin-4-amine] | 2300
32 | FC(F)(F)c1ccc(CCCNc2nc(-c3ccccn3)nc3sccc23)cc1 [Example 30, 2-(pyridin-2-yl)-N-(3-(4-(trifluoromethyl)phenyl)propyl)thieno[2,3-d]pyrimidin-4-amine] | 2200
33 | Fc1ccc([C@@H]2C[C@H]2Nc2nc(-c3ccccn3)nc3sccc23)cc1F [Example 31, N-((1R,2S)-2-(3,4-difluorophenyl)cyclopropyl)-2-(pyridin-2-yl)thieno[2,3-d]pyrimidin-4-amine] | 7100

Source: patent publication US20240279236A1, “COMPOUNDS AND METHODS OF TREATING TUBERCULOSIS” (Fimbrion Therapeutics, Inc., priority 2021, published 2024)
